One experiment has as its target Human Factor D (Homo sapiens (Human), UniProt P00746). Put plainly: Human Factor D Assay. Type of experiment: biochemical.
Conditions: not given
On the procedure: Human Factor D (purified from human serum, Complement Technology, Inc.) at 80 nM final concentration was incubated with test compound at various concentrations for 5 minutes at room temperature in 50 mM Tris, 1M NaCl, pH 7.5. A synthetic substrate Z-L-Lys-SBzl and DTNB (Ellman's reagent) are added to final concentrations of 100 μM each. […] IC50 values are calculated by nonlinear regression of complement Factor D reaction rates as a function of test compound concentration.
Sequence of Human Factor D (P00746 26-253): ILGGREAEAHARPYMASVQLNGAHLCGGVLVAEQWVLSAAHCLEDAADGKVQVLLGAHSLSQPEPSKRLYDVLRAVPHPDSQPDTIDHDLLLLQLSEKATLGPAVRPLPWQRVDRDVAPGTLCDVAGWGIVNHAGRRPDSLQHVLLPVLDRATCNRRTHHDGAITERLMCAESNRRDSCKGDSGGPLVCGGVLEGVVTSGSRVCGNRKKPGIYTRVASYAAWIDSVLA
`CC(=O)c1cn(CC(=O)N2C[C@H](F)C[C@H]2C(=O)NCc2cccnc2)c2ccc(-c3ccnnc3)cc12` [Compound 59, (2S,4R)-1-(2-(3-acetyl-5-(pyridazin-4-yl)-1H-indol-1-yl)acetyl)-4-fluoro-N-(pyridin-3-ylmethyl) pyrrolidine-2-carboxamide] had an IC50 of 1 to 10 µM.

The experiment is the same for the next values; noted with them: Human Factor D 80 nM, substrate Z-L-Lys-SBzl; read-out: IC50.
Consider `Cc1nc2sccn2c1-c1csc(NC(=O)[C@@H]2C[C@@H](F)CN2C(=O)Cn2nc(C(N)=O)c3cc(-c4ccnnc4)ccc32)n1` [Compound 58, 1-(2-((2S,4R)-4-fluoro-2-(4-(6-methylimidazo[2,1-b]thiazol-5-yl)thiazol-2-ylcarbamoyl)pyrrolidin-1-yl)-2-oxoethyl)-5-(pyridazin-4-yl)-1H-indazole-3-carboxamide], for which the IC50 was greater than 10 µM.
Still for that read-out and setting: in the case of `CC(=O)c1cn(CC(=O)N2C[C@H](F)C[C@H]2C(=O)Nc2ccc(CNC(=O)OCC3c4ccccc4-c4ccccc43)cc2)c2ccc(-c3ccnnc3)cc12` [Compound 61] it was greater than 10 µM; in that of `NC(=O)c1nn(CC(=O)N2C[C@H](F)C[C@H]2C(=O)NCc2cc(F)cc(Cl)c2)c2ccc(-c3ccnnc3)cc12` [Compound 62, 1-(2-((2S,4R)-2-(3-chloro-5-fluorobenzyl-carbamoyl)-4-fluoropyrrolidin-1-yl)-2-oxoethyl)-5-(pyridazin-4-yl)-1H-indazole-3-carboxamide], less than 1 µM; in that of `CC(=O)c1cn(CC(=O)N2C[C@H](F)C[C@H]2C(=O)Nc2ccccc2N2CCOC2=O)c2ccc(-c3ccnnc3)cc12` [Compound 64, (2S,4R)-1-(2-(3-acetyl-5-(pyridazin-4-yl)-1H-indol-1-yl)acetyl)-4-fluoro-N-(2-(2-oxooxazolidin-3-yl)phenyl) pyrrolidine-2-carboxamide], greater than 10 µM.
On the same count and under the same terms, in the case of `NC(=O)c1nn(CC(=O)N2C[C@H](F)C[C@H]2C(=O)Nc2ccccc2N2CCOC2=O)c2ccc(-c3ccnnc3)cc12` [Compound 65, 1-(2-((2S,4R)-4-fluoro-2-(2-(2-oxooxazolidin-3-yl)phenylcarbamoyl)pyrrolidin-1-yl)-2-oxoethyl)-5-(pyridazin-4-yl)-1H-indazole-3-carboxamide] it was greater than 10 µM; in that of `CC(=O)c1cn(CC(=O)N2C[C@H](F)C[C@H]2C(=O)Nc2cncc(Cl)c2)c2ccc(-c3ccnnc3)cc12` [Compound 66, (2S,4R)-1-(2-(3-acetyl-5-(pyridazin-4-yl)-1H-indol-1-yl)acetyl)-N-(5-chloropyridin-3-yl)-4-fluoropyrrolidine-2-carboxamide], less than 1 µM.
The same measure, in the same setting: to `CC(=O)c1cn(CC(=O)N2C[C@H](F)C[C@H]2C(=O)Nc2cncc(Br)c2)c2ccc(-c3ccnnc3)cc12` [Compound 68, (2S,4R)-1-(2-(3-acetyl-5-(pyridazin-4-yl)-1H-indol-1-yl)acetyl)-N-(5-bromopyridin-3-yl)-4-fluoropyrrolidine-2-carboxamide] belongs less than 1 µM.
As for `NC(=O)c1nn(CC(=O)N2C[C@H](F)C[C@H]2C(=O)Nc2nnc(-c3ccc(Cl)c(Cl)c3)s2)c2ccc(-c3ccnnc3)cc12` [Compound 69, 1-(2-((2S,4R)-2-(5-(3,4-dichlorophenyl)-1,3,4-thiadiazol-2-ylcarbamoyl)-4-fluoropyrrolidin-1-yl)-2-oxoethyl)-5-(pyridazin-4-yl)-1H-indazole-3-carboxamide], the IC50 is greater than 10 µM.
For the compound `NCc1ccc(NC(=O)[C@@H]2C[C@@H](F)CN2C(=O)Cn2nc(C(N)=O)c3cc(-c4ccnnc4)ccc32)cc1` [Compound 70, 1-(2-((2S,4R)-2-(4-(aminomethyl)phenylcarbamoyl)-4-fluoropyrrolidin-1-yl)-2-oxoethyl)-5-(pyridazin-4-yl)-1H-indazole-3-carboxamide], the IC50 was greater than 10 µM.
The same measure, in the same setting: to `Cc1ccnn1-c1ccccc1NC(=O)[C@@H]1C[C@@H](F)CN1C(=O)Cn1nc(C(N)=O)c2cc(-c3ccnnc3)ccc21` [Compound 71, 1-(2-((2S,4R)-4-fluoro-2-(2-(5-methyl-1H-pyrazol-1-yl)phenylcarbamoyl)pyrrolidin-1-yl)-2-oxoethyl)-5-(pyridazin-4-yl)-1H-indazole-3-carboxamide] belongs greater than 10 µM.
On the same count and under the same terms, in the case of `CC(=O)c1cn(CC(=O)N2C[C@H](F)C[C@H]2C(=O)Nc2ccccc2-n2nccc2C)c2ccc(-c3ccnnc3)cc12` [Compound 72, (2S,4R)-1-(2-(3-acetyl-5-(pyridazin-4-yl)-1H-indol-1-yl)acetyl)-4-fluoro-N-(2-(5-methyl-1H-pyrazol-1-yl)phenyl) pyrrolidine-2-carboxamide] it was greater than 10 µM.
For the compound `NC(=O)c1nn(CC(=O)N2C[C@H](F)C[C@H]2C(=O)Nc2cccc(OCc3ccccc3)n2)c2ccc(-c3ccnnc3)cc12` [Compound 73, 1-(2-((2S,4R)-2-(6-(benzyloxy)pyridin-2-ylcarbamoyl)-4-fluoropyrrolidin-1-yl)-2-oxoethyl)-5-(pyridazin-4-yl)-1H-indazole-3-carboxamide], the IC50 is greater than 10 µM.
On to `CC(=O)c1cn(CC(=O)N2C[C@H](F)C[C@H]2C(=O)N[C@H]2CCCC[C@@H]2OCc2ccccc2)c2ccc(-c3ccnnc3)cc12` [Compound 74, (2S,4R)-1-(2-(3-acetyl-5-(pyridazin-4-yl)-1H-indol-1-yl)acetyl)-N-((1S,2S)-2-(benzyloxy)cyclohexyl)-4-fluoropyrrolidine-2-carboxamide], for which the IC50 is greater than 10 µM.
For `CC(=O)c1cn(CC(=O)N2C[C@H](F)C[C@H]2C(=O)Nc2ccc3c(c2)OC(C)(C)C3)c2ccc(-c3ccnnc3)cc12` [Compound 75, (2S,4R)-1-(2-(3-acetyl-5-(pyridazin-4-yl)-1H-indol-1-yl)acetyl)-N-(2,2-dimethyl-2,3-dihydrobenzofuran-6-yl)-4-fluoropyrrolidine-2-carboxamide], the IC50 was less than 1 µM.
Still for that read-out and setting: to `CC1(C)Cc2ccc(NC(=O)[C@@H]3C[C@@H](F)CN3C(=O)Cn3nc(C(N)=O)c4cc(-c5ccnnc5)ccc43)cc2O1` [Compound 76, 1-(2-((2S,4R)-2-(2,2-dimethyl-2,3-dihydrobenzofuran-6-ylcarbamoyl)-4-fluoropyrrolidin-1-yl)-2-oxoethyl)-5-(pyridazin-4-yl)-1H-indazole-3-carboxamide] belongs less than 1 µM.
For the compound `CC(=O)c1cn(CC(=O)N2C[C@H](F)C[C@H]2C(=O)N[C@H]2CCC[C@@H]2OCc2ccccc2)c2ccc(-c3ccnnc3)cc12` [Compound 77, (2S,4R)-1-(2-(3-acetyl-5-(pyridazin-4-yl)-1H-indol-1-yl)acetyl)-N-((1S,2S)-2-(benzyloxy)cyclopentyl)-4-fluoropyrrolidine-2-carboxamide], the IC50 is greater than 10 µM.
On the same count and under the same terms, to `NC(=O)c1nn(CC(=O)N2C[C@H](F)C[C@H]2C(=O)N[C@H]2CCCC[C@@H]2OCc2ccccc2)c2ccc(-c3ccnnc3)cc12` [Compound 78, 1-(2-((2S,4R)-2-((1S,2S)-2-(benzyloxy)cyclohexyl-carbamoyl)-4-fluoropyrrolidin-1-yl)-2-oxoethyl)-5-(pyridazin-4-yl)-1H-indazole-3-carboxamide] belongs greater than 10 µM; to `CNC(=O)[C@@H]1C[C@@H](F)CN1C(=O)Cn1nc(C(N)=O)c2cc(-c3ccnnc3)ccc21` [Compound 79, 1-(2-((2S,4R)-4-fluoro-2-(methylcarbamoyl)pyrrolidin-1-yl)-2-oxoethyl)-5-(pyridazin-4-yl)-1H-indazole-3-carboxamide], greater than 10 µM.
The same measure, in the same setting: in the case of `COc1ncc(-c2ccc3c(c2)c(C(C)=O)cn3CC(=O)N2[C@@H]3C[C@@H]3C[C@H]2C(=O)Nc2cccc(-c3ccccc3Cl)c2F)cn1` [Compound 80, (1R,3S,5R)-2-(2-(3-acetyl-5-(2-methoxypyrimidin-5-yl)-1H-indol-1-yl)acetyl)-N-(2′-chloro-2-fluorobiphenyl-3-yl)-2-azabicyclo[3.1.0] hexane-3-carboxamide] it was less than 1 µM; in that of `COc1ncc(-c2ccc3c(c2)c(C(C)=O)cn3CC(=O)N2[C@@H]3C[C@@H]3C[C@H]2C(=O)Nc2cccc(Br)n2)cn1` [Compound 81, (1R,3S,5R)-2-(2-(3-acetyl-5-(2-methoxypyrimidin-5-yl)-1H-indol-1-yl)acetyl)-N-(6-bromopyridin-2-yl)-2-azabicyclo[3.1.0] hexane-3-carboxamide], less than 1 µM; in that of `CC(=O)c1cn(CC(=O)N2C[C@H](F)C[C@H]2C(=O)Nc2cccc(Br)n2)c2ccc(-c3cnc(C#N)nc3)cc12` [Compound 82, (2S,4R)-1-(2-(3-acetyl-5-(2-cyanopyrimidin-5-yl)-1H-indol-1-yl)acetyl)-N-(6-bromopyridin-2-yl)-4-fluoropyrrolidine-2-carboxamide], less than 1 µM.
`CC(=O)c1cn(CC(=O)N2C[C@H](F)C[C@H]2C(=O)Nc2cccc(Br)n2)c2ccc(-c3cnc(F)nc3)cc12` [Compound 83, (2S,4R)-1-(2-(3-acetyl-5-(2-fluoropyrimidin-5-yl)-1H-indol-1-yl)acetyl)-N-(6-bromopyridin-2-yl)-4-fluoropyrrolidine-2-carboxamide]: the IC50 was less than 1 µM.
The same measure, in the same setting: to `CC(=O)c1cn(CC(=O)N2C[C@H](F)C[C@H]2C(=O)Nc2cccc(Br)n2)c2ccc(-c3cnc(C)nc3)cc12` [Compound 84, (2S,4R)-1-(2-(3-acetyl-5-(2-methylpyrimidin-5-yl)-1H-indol-1-yl)acetyl)-N-(6-bromopyridin-2-yl)-4-fluoropyrrolidine-2-carboxamide] belongs less than 1 µM; to `CC(=O)c1cn(CC(=O)N2C[C@H](F)C[C@H]2C(=O)Nc2ccc(CN)cc2)c2ccc(-c3ccnnc3)cc12` [Compound 85, (2S,4R)-1-(2-(3-acetyl-5-(pyridazin-4-yl)-1H-indol-1-yl)acetyl)-N-(4-(aminomethyl)phenyl)-4-fluoropyrrolidine-2-carboxamide], greater than 10 µM; to `NC(=O)c1nn(CC(=O)N2C[C@H](F)C[C@H]2C(=O)Nc2ccc3cn[nH]c3c2)c2ccc(-c3ccnnc3)cc12` [Compound 86, 1-(2-((2S,4R)-2-(1H-indazol-6-ylcarbamoyl)-4-fluoropyrrolidin-1-yl)-2-oxoethyl)-5-(pyridazin-4-yl)-1H-indazole-3-carboxamide], greater than 10 µM.

The values above are taken from patent publication US10287301B2 (Achillion Pharmaceuticals, Inc., priority 2015, dated 2019).
